The data set concerns CCRIS mutagenicity, Ames/micronucleus/aberration tests. Put plainly: CCRIS mutagenicity studies.
The mark [1] stands for this setting: Test System: AMES SALMONELLA TYPHIMURIUM, Strain/Indicator: TA98, Metabolic Activation: NONE, Method: PREINCUBATION
Setting [2] is: Test System: AMES SALMONELLA TYPHIMURIUM, Strain/Indicator: TA100, Metabolic Activation: NONE, Method: PREINCUBATION
[3] abbreviates: Test System: AMES SALMONELLA TYPHIMURIUM, Strain/Indicator: TA1535, Metabolic Activation: NONE, Method: PREINCUBATION
Setting [4] is: Test System: AMES SALMONELLA TYPHIMURIUM, Strain/Indicator: TA1537, Metabolic Activation: NONE, Method: PREINCUBATION
[5] abbreviates: Test System: AMES SALMONELLA TYPHIMURIUM, Strain/Indicator: TA98, Metabolic Activation: NONE, Method: STANDARD PLATE.
Where [6] appears, read: Test System: AMES SALMONELLA TYPHIMURIUM, Strain/Indicator: TA98, Metabolic Activation: RAT, LIVER, S-9, AROCLOR 1254, Method: STANDARD PLATE.
Where [7] appears, read: Test System: AMES SALMONELLA TYPHIMURIUM, Strain/Indicator: TA100, Metabolic Activation: NONE, Method: STANDARD PLATE.
Where [8] appears, read: Test System: AMES SALMONELLA TYPHIMURIUM, Strain/Indicator: TA100, Metabolic Activation: RAT, LIVER, S-9, AROCLOR 1254, Method: STANDARD PLATE.
Where [9] appears, read: Test System: AMES SALMONELLA TYPHIMURIUM, Strain/Indicator: TA1537, Metabolic Activation: NONE, Method: STANDARD PLATE.

Calls of active or inactive are those of the source. How the calls were made is not given here.

For `C=CC(=C)C`, the mutagenic call runs as follows: (End Point: IN VIVO CHROMOSOMAL ABERRATIONS, Test System: BONE MARROW CELLS, Species: MOUSE, Strain/Sex: B6C3F1/MALE, Route: INHALATION) “inactive; negative”; (End Point: IN VIVO MICRONUCLEUS, Test System: PERIPHERAL BLOOD LYMPHOCYTES, Species: MOUSE, Strain/Sex: B6C3F1/MALE, Route: INHALATION) “active; positive”; (Test System: AMES SALMONELLA TYPHIMURIUM, Strain/Indicator: TA98, Metabolic Activation: HAMSTER, LIVER, S-9, AROCLOR 1254 (10%), Method: PREINCUBATION) “inactive; negative”; under setting [1], “inactive; negative”; (Test System: AMES SALMONELLA TYPHIMURIUM, Strain/Indicator: TA98, Metabolic Activation: RAT, LIVER, S-9, AROCLOR 1254 (10%), Method: PREINCUBATION) “inactive; negative”; (Test System: AMES SALMONELLA TYPHIMURIUM, Strain/Indicator: TA98, Metabolic Activation: S-9, Method: PREINCUBATION) “inactive; negative”. Further, the mutagenic call by setting is: (Test System: AMES SALMONELLA TYPHIMURIUM, Strain/Indicator: TA100, Metabolic Activation: HAMSTER, LIVER, S-9, AROCLOR 1254 (10%), Method: PREINCUBATION) “inactive; negative”; under setting [2], “inactive; negative”; (Test System: AMES SALMONELLA TYPHIMURIUM, Strain/Indicator: TA100, Metabolic Activation: RAT, LIVER, S-9, AROCLOR 1254 (10%), Method: PREINCUBATION) “inactive; negative”; (Test System: AMES SALMONELLA TYPHIMURIUM, Strain/Indicator: TA100, Metabolic Activation: S-9, Method: PREINCUBATION) “inactive; negative”; (Test System: AMES SALMONELLA TYPHIMURIUM, Strain/Indicator: TA1535, Metabolic Activation: HAMSTER, LIVER, S-9, AROCLOR 1254 (10%), Method: PREINCUBATION) “inactive; negative”; under setting [3], “inactive; negative”. For the same molecule, the mutagenic call by setting is: (Test System: AMES SALMONELLA TYPHIMURIUM, Strain/Indicator: TA1535, Metabolic Activation: RAT, LIVER, S-9, AROCLOR 1254 (10%), Method: PREINCUBATION) “inactive; negative”; (Test System: AMES SALMONELLA TYPHIMURIUM, Strain/Indicator: TA1535, Metabolic Activation: S-9, Method: PREINCUBATION) “inactive; negative”; (Test System: AMES SALMONELLA TYPHIMURIUM, Strain/Indicator: TA1537, Metabolic Activation: HAMSTER, LIVER, S-9, AROCLOR 1254 (10%), Method: PREINCUBATION) “inactive; negative”; under setting [4], “inactive; negative”; (Test System: AMES SALMONELLA TYPHIMURIUM, Strain/Indicator: TA1537, Metabolic Activation: RAT, LIVER, S-9, AROCLOR 1254 (10%), Method: PREINCUBATION) “inactive; negative”; (Test System: E.COLI, Strain/Indicator: WP2UVRA/PKM101, Metabolic Activation: NONE, Method: PREINCUBATION) “inactive; negative”. Moreover, under “Test System: E.COLI, Strain/Indicator: WP2UVRA/PKM101, Metabolic Activation: S-9, Method: PREINCUBATION”, the mutagenic call was “inactive; negative”.

For `Cc1nc2c(c3[nH]c4ccccc4c13)C(=O)C(N1CC1)=CC2=O`, the mutagenic call runs as follows: (Test System: AMES SALMONELLA TYPHIMURIUM, Strain/Indicator: TA97, Metabolic Activation: NONE, Method: STANDARD PLATE) “active; positive”; (Test System: AMES SALMONELLA TYPHIMURIUM, Strain/Indicator: TA97, Metabolic Activation: RAT, LIVER, S-9, AROCLOR 1254, Method: STANDARD PLATE) “active; positive”; under setting [5], “active; positive”; under setting [6], “active; positive”; under setting [7], “active; positive”; under setting [8], “active; positive”. In addition, the mutagenic call runs as follows: (Test System: AMES SALMONELLA TYPHIMURIUM, Strain/Indicator: TA102, Metabolic Activation: NONE, Method: STANDARD PLATE) “active; positive”; (Test System: AMES SALMONELLA TYPHIMURIUM, Strain/Indicator: TA102, Metabolic Activation: RAT, LIVER, S-9, AROCLOR 1254, Method: STANDARD PLATE) “active; positive”.

In the case of `CCc1ccnc2ccccc12`, under “Test System: AMES SALMONELLA TYPHIMURIUM, Strain/Indicator: TA100, Metabolic Activation: RAT, LIVER, S-9, Method: PREINCUBATION”, the mutagenic call is “inactive; negative”.

As for `COc1c(N)cc(C)c(N)c1C`, the mutagenic call by setting is: under setting [5], “inactive; negative”; under setting [6], “inactive; negative”; under setting [7], “inactive; negative”; under setting [8], “inactive; negative”; (Test System: AMES SALMONELLA TYPHIMURIUM, Strain/Indicator: TA1535, Metabolic Activation: NONE, Method: STANDARD PLATE) “inactive; negative”; (Test System: AMES SALMONELLA TYPHIMURIUM, Strain/Indicator: TA1535, Metabolic Activation: RAT, LIVER, S-9, AROCLOR 1254, Method: STANDARD PLATE) “inactive; negative”. In addition, the mutagenic call by setting is: under setting [9], “inactive; negative”; (Test System: AMES SALMONELLA TYPHIMURIUM, Strain/Indicator: TA1537, Metabolic Activation: RAT, LIVER, S-9, AROCLOR 1254, Method: STANDARD PLATE) “inactive; negative”; (Test System: AMES SALMONELLA TYPHIMURIUM, Strain/Indicator: TA1538, Metabolic Activation: NONE, Method: STANDARD PLATE) “inactive; negative”; (Test System: AMES SALMONELLA TYPHIMURIUM, Strain/Indicator: TA1538, Metabolic Activation: RAT, LIVER, S-9, AROCLOR 1254, Method: STANDARD PLATE) “inactive; negative”.

With `CC(=O)N1CCc2cc([N+](=O)[O-])ccc21`, the mutagenic call (End Point: IN VITRO CHROMOSOMAL ABERRATIONS, Test System: CHL CELLS, Metabolic Activation: RAT, LIVER, S-9, SODIUM PHENOBARBITAL AND 5,6-BENZOFLAVONE) was “inactive; negative”.

For `c1scc2c1-c1cscc1C1OC21` (stereo not drawn), the mutagenic call was “active; positive” under setting [5] and “active; positive” under setting [7].

Take `CC(=O)C(C)=O`: the mutagenic call is “inactive; negative” under setting [1]; “inactive; negative” (Test System: AMES SALMONELLA TYPHIMURIUM, Strain/Indicator: TA98, Metabolic Activation: RAT, LIVER, S-9, AROCLOR 1254, Method: PREINCUBATION); “inactive; negative” under setting [2]; “active; positive” under setting [7]; “inactive; negative” (Test System: AMES SALMONELLA TYPHIMURIUM, Strain/Indicator: TA100, Metabolic Activation: RAT, LIVER, S-9, AROCLOR 1254, Method: PREINCUBATION); “active; positive” (Test System: AMES SALMONELLA TYPHIMURIUM, Strain/Indicator: TA100, Metabolic Activation: RAT, LIVER, S-9, PHENOBARBITAL, Method: STANDARD PLATE). The mutagenic call is, setting by setting: (Test System: AMES SALMONELLA TYPHIMURIUM, Strain/Indicator: TA102, Metabolic Activation: NONE, Method: PREINCUBATION) “active; positive”; (Test System: AMES SALMONELLA TYPHIMURIUM, Strain/Indicator: TA102, Metabolic Activation: RAT, LIVER, S-9, AROCLOR 1254, Method: PREINCUBATION) “active; positive”; (Test System: AMES SALMONELLA TYPHIMURIUM, Strain/Indicator: TA104, Metabolic Activation: NONE, Method: PREINCUBATION) “active; positive”; under setting [3], “inactive; negative”; under setting [4], “inactive; negative”; (Test System: AMES SALMONELLA TYPHIMURIUM, Strain/Indicator: TA1538, Metabolic Activation: NONE, Method: PREINCUBATION) “inactive; negative”. Besides, the mutagenic call (Test System: E. COLI, Strain/Indicator: WP2 UVRA, Metabolic Activation: NONE, Method: PREINCUBATION) is “inactive; negative”.

As to `CC(=O)OCc1c2cccc3ccc4cc5cccc6ccc1c(c65)c4c32`, the mutagenic call under setting [5] was “active; positive” and the mutagenic call under setting [7] was “inactive; negative”.

Regarding `CS(=O)(=O)Nc1ccc(Nc2c3ccccc3nc3ccccc23)cc1`, the mutagenic call under setting [9] is “active; positive”.

On to `OC/C=C/C=C/CO`, for which the mutagenic call (Test System: CHINESE HAMSTER V-79, Strain/Indicator: V-79 (HGPRT)/8-AZAGUANINE, Metabolic Activation: NONE) was “inactive; negative”.
